Tests used:
[1] = Leaching of rare-earth elements from mixed rare-earth hydroxide; settings: RT, 26 h, 20 mM lixiviant; for selectivity of leaching of REEs (percent dissolution): pH 8.2, CHES/CAPS buffer, 15 mg/mL (La,Nd,Eu,Dy,Y)OH3, FIG. 11
Experimental: A solution of CHES (400 mM) and CAPS (400 mM) was prepared in H2O. The pH was left unadjusted. Buffered solutions of acyclopa at pH 8.2, 9, and 10 were prepared by adding an aliquot of acyclopa (6.65 mL of a 75.17 mM aqueous stock solution) to a volumetric flask (25 mL) containing CHES/CAPS (12.5 mL). The solution was diluted with concentrated NaOH and H2O to the desired final pH. The final ligand concentration was 20 mM and the final CHES and CAPS concentrations were 200 mM each. Buffered solutions of EDTA were prepared in an analogous manner. For control samples without chelator, CHES/CAPS buffer (200 mM each) was prepared separately for each pH.
Leaching experiments were setup as follows: Various quantities (5±0.3 mg, 10±0.5 mg, and 15±0.5 mg) of (La,Nd,Eu,Dy,Y)OH3 were massed into 2 mL flat-bottomed screw-cap polypropylene tubes. An aliquot of lixiviant solution or buffer only (1 mL) was added to each tube. The samples were rotated end-over-end at 35 RPM and ambient temperature (71±1° F.). At pre-determined time points, the suspensions were centrifuged, and an aliquot of the supernatant (10 μL) was carefully removed and placed into 2% HNO3 (4.990 mL) for ICP-MS analysis. The samples were shaken to break up the pellets and returned to the rotating wheels. At the final time point, the suspensions were filtered via a 96-well filter plate (Pall AcroPrep Advance 0.2 μm Supor Short Tip) and sampled for ICP-MS. The final pH of representative samples was recorded. […] Also, the separation factor was calculated according to the equation below. The leaching of REEs (expressed as percent dissolution) from (La,Nd,Eu,Dy,Y)OH3 by acyclopa as a function of pH (pH 8.2, pH 9, or pH 10) using a CHES/CAPS buffer, RT, 26 h, 20 mM lixiviant, and 5 mg/mL (La,Nd,Eu,Dy,Y)OH3 are shown in FIG. 9. The leaching of REEs (expressed as concentration) from (La,Nd,Eu,Dy,Y)OH3 by acyclopa as a function of solid loading at a pH of 9 using a CHES/CAPS buffer, RT, 26 h, 20 mM lixiviant, and 5-15 mg/mL (La,Nd,Eu,Dy,Y)OH3 are shown in FIG. 10. […]

[2] = Protonation constants and lanthanide complex stabilities by potentiometric titration; assay type: binding
Experimental: Protonation constants and lanthanide (Ln) stability constants of acyclopa and acyclopa-XL were obtained by potentiometric titration using either a Metrohm Titrando 888 titrator or an 855 Robotic Titrosampler connected to an 805 Dosimat. Both titration systems were equipped with Ross Orion combination electrodes (8103BN, ThermoFisher Scientific), Metrohm 806 exchange units with automatic burets (10 mL), and Tiamo 2.5 software. The titration vessel was fitted with a removable glass cell and thermostated at 25° C. using an Isotemp 500LC recirculating chiller (Fisher Scientific). CO2 was excluded from the titration vessel using a small positive pressure of argon bubbled through 30 wt % KOH. […]
Before every ligand or ligand-metal titration, the electrode was calibrated in terms of the hydrogen-ion concentration by titrating a solution of standardized HCl (0.005 M) containing supporting electrolyte (KCl=0.095 M) with standardized KOH. Data within the pH ranges of 2.3-3.2 and 10.8-11.3 were analyzed using the program Glee (version 3.0.21) to obtain the standard electrode potential (E0) and slope factor. […] Their exact concentrations were determined potentiometrically from the two sharp endpoints of their titration curves using the formula ((VEP2−VEP1)/npKa)*[KOH]. […]

[3] = Recovery and reuse of acyclopa in multiple leach cycles (oxalic acid stripping)
Experimental: The release of REEs from acyclopa and their subsequent precipitation as REE2(C2O4)3 was investigated as a function of pH and oxalic acid equivalents. Pregnant leach solutions were prepared at pH 8.2 using acyclopa and La(OH)3, and varying equivalents of H2C2O4 were added. The pH of the samples was reduced stepwise to pH 6, 5, 4, and 3 using HCl. The concentration of La remaining in the supernatant at each pH was analyzed by ICP-MS. The release of REEs from acyclopa and their subsequent precipitation as REE2(C2O4)3 as a function of pH and oxalic acid equivalents is shown in FIG. 12.
Next, the ability to reuse acyclopa in multiple leach cycles was investigated. Leaching samples were prepared as described above at pH 8.2 using acyclopa and La(OH)3. […] To this solution, 2 equivalents of oxalic acid were added, and the pH was adjusted to 3 using HCl. The resulting precipitate was removed. The pH of the filtrate was re-adjusted to 8.2 using NaOH, and another portion of La(OH)3 was added. The suspension was stirred for 24 h, and the percent La dissolved was measured by ICP-MS. In subsequent precipitation cycles, only 1 equivalent of oxalic acid was added. Using this method, ˜75% dissolution was maintained over 4 dissolution/precipitation cycles. The results are shown graphically in FIG. 13.

Structure (SMILES) | selectivity of leaching of REEs (percent dissolution) [1] | Δ log KLa-Lu (difference of stability constants log KML) ([2]; 25° C., ionic strength 0.1 M KCl, La^3+ versus Lu^3+) | affinity for rare-earth elements (in words) ([2]; log KML versus ionic radius, FIG. 6) | effect of increasing solid loading on La/Y separation ([1]; pH 9, CHES/CAPS buffer, 5-15 mg/mL (La,Nd,Eu,Dy,Y)OH3, FIG. 10) | percent La dissolved (dissolution of La(OH)3) ([3]; pH 8.2, 24 h, maintained over 4 dissolution/precipitation cycles, ICP-MS, FIG. 13) [%] | initial dissolution of La(OH)3 ([3]; pH 8.2, first leach)
O=C(O)CN(CCN(CC(=O)O)CC(=O)O)CC(=O)O [EDTA, ethylenediaminetetraacetic acid, reference compound] | fails to demonstrate any selectivity |  |  |  |  | 
O=C(O)c1cccc(CN(CCO)CCOCCOCCN(CCO)Cc2cccc(C(=O)O)n2)n1 [acyclopa, 6,6′-(2,11-bis(2-hydroxyethyl)-5,8-dioxa-2,11-diazadodecane-1,12-diyl)dipicolinic acid] | preferentially leaches large over small REEs | 4.27 | high affinity for large, light REEs and low affinity for small, heavy REEs | significantly increases separative leaching of La from Y | ~75 | nearly all of the La(OH)3 was dissolved initially

Source: patent US20240294553A1, “SIZE-SELECTIVE ACYCLIC CHELATORS AND THEIR USE FOR THE RECOVERY OF RARE EARTH ELEMENTS” (UT-Battelle, LLC, priority 2023, published 2024)
